Test results reported in the NIST ThermoML archive (doi:10.1016/j.jct.2013.09.039).

Assay: xn = mol fraction of the nth substance listed
Conditions: Liquid, Vibrating tube method

Cc1ccc(C)cc1 [1,4-dimethylbenzene] + CCCCCCCC
mass density [kg/m3]
Conditions	100 kPa	5000 kPa	10000 kPa	20000 kPa	30000 kPa	40000 kPa
288.15 K, x2 = 0.0509	854.9	858.3	861.8	868.3	874.2	880
288.15 K, x2 = 0.0993	845.1	849	852.5	858.8	864.8	870.6
288.15 K, x2 = 0.1981	826.4	830.2	833.7	840.4	846.4	852.2
288.15 K, x2 = 0.2961	808.8	812.6	816.2	822.9	829	834.9
288.15 K, x2 = 0.3989	791.4	795.2	798.9	805.6	811.9	817.8
288.15 K, x2 = 0.4891	776.6	780.8	784.6	791.3	797.8	803.8
288.15 K, x2 = 0.5473	768.3	772	775.7	782.7	789.1	795.1
288.15 K, x2 = 0.6039	760.1	763.5	767.2	774.2	780.5	786.5
288.15 K, x2 = 0.8031	731.5	735.9	739.8	746.9	753.3	759.8
288.15 K, x2 = 0.8963	719.7	723.8	727.5	734.8	741.1	747.2
288.15 K, x2 = 0.946	712.7	716.7	720.8	727.6	734.2	740.3
298.15 K, x2 = 0.0509	846.1	850.4	853.4	860.3	866.3	872.5
298.15 K, x2 = 0.0993	836.5	840.8	844	850.7	857.1	863.1
298.15 K, x2 = 0.1981	817.9	822.3	825.5	832.4	838.9	844.9
298.15 K, x2 = 0.2961	800.2	804.6	808	815	821.5	827.5
298.15 K, x2 = 0.3989	782.9	787.4	790.9	798	804.5	810.7
298.15 K, x2 = 0.4891	768.7	773.3	776.6	784	790.7	796.8
298.15 K, x2 = 0.5473	760.7	764.4	768	775.2	781.9	787.9
298.15 K, x2 = 0.6039	752.1	755.9	759.5	766.8	773.3	779.4
298.15 K, x2 = 0.8031	723.7	728.5	732.1	739.3	746.2	752.5
298.15 K, x2 = 0.8963	712.2	716.5	720	727.3	734.1	740.5
298.15 K, x2 = 0.946	704.7	709.5	713.2	720.7	727.5	733.8
308.15 K, x2 = 0.0509	837.4	841.4	845.2	852.1	858.9	865
308.15 K, x2 = 0.0993	828	832	835.8	842.9	849.6	855.8
308.15 K, x2 = 0.1981	809.3	813.5	817.5	824.5	831.4	837.7
308.15 K, x2 = 0.2961	791.6	796	800	807.3	814.2	820.5
308.15 K, x2 = 0.3989	774.4	778.8	783	790.3	797.2	803.7
308.15 K, x2 = 0.4891	760.3	764.7	768.9	776.4	783.4	789.7
308.15 K, x2 = 0.5473	752.4	755.9	760.1	767.7	774.6	781.2
308.15 K, x2 = 0.6039	743.9	747.2	751.6	759.3	766.3	772.7
308.15 K, x2 = 0.8031	716.1	719.9	724.2	732.1	739.2	745.9
308.15 K, x2 = 0.8963	704.2	708.1	712.4	720.1	727.4	734
308.15 K, x2 = 0.946	697.5	701.3	705.5	713.4	720.7	727.3

Cc1ccc(C)cc1 [1,4-dimethylbenzene] + COC(=O)OC
mass density [kg/m3]
Conditions	x2 = 0.0432	x2 = 0.195	x2 = 0.3968	x2 = 0.4933	x2 = 0.5296	x2 = 0.5993	x2 = 0.7034	x2 = 0.8023	x2 = 0.8921	x2 = 0.9478
288.15 K, 100 kPa	871.8	894.2	924.2	944.9	953.3	968.4	992.3	1010.6	1038.1	1052.9
288.15 K, 5000 kPa	875.5	897.8	931.9	950.4	957.3	972.4	996.2	–	1042.5	1057.2
288.15 K, 10000 kPa	879.1	901.3	935.7	954.1	961.2	976.3	1000.3	–	1046.6	1061.4
288.15 K, 20000 kPa	885.4	907.8	942.5	961.4	968.3	983.7	1007.8	–	1054.5	1069.4
288.15 K, 30000 kPa	891.3	914	949	967.9	974.9	990.5	1014.7	–	1061.5	1076.7
288.15 K, 40000 kPa	897.1	920.1	955.3	974.3	980.9	997.1	1021.4	–	1068.7	1083.8
298.15 K, 100 kPa	863	884.5	917.8	935.8	942.5	957.3	980.5	998.4	1025.5	1040
298.15 K, 5000 kPa	867.3	888.3	922.5	940.6	947.1	962	985.4	1003.4	1030.6	1044.9
298.15 K, 10000 kPa	870.4	892.1	925.8	944	950.7	965.7	989.1	–	1034.7	1049
298.15 K, 20000 kPa	877.1	899.2	933.2	951.6	958.2	973.4	997	–	1042.9	1057.5
298.15 K, 30000 kPa	883.4	905.5	939.9	958.7	965.4	980.5	1004.4	1022.7	1050.6	1065
298.15 K, 40000 kPa	889.1	911.7	946.5	965.1	972	987.3	1011.2	1030.1	1057.9	1072.7
308.15 K, 100 kPa	854.3	875.2	907.6	925.2	931.7	946.3	969	–	1013.1	1027.2
308.15 K, 5000 kPa	858.1	879.3	912.1	929.7	936.2	950.8	973.7	–	1018	1032.1
308.15 K, 10000 kPa	862	883.3	916.2	934.1	940.4	955.2	978.2	–	1022.7	1036.8
308.15 K, 20000 kPa	869.1	890.7	924	941.8	948.4	958.3	986.4	1004.4	1031.5	1045.7
308.15 K, 30000 kPa	875.7	897.5	931.2	949.4	956	970.9	994.2	1012.2	1039.7	1054
308.15 K, 40000 kPa	881.7	904	937.9	956.3	963	978.1	1001.5	1019.8	1047.4	1061.7
